# Measured values from publication PMC12333940, “A prometabolite strategy inhibits cardiometabolic disease in an ApoE^–/– murine model of atherosclerosis” (JCI Insight, 2025).
# Values joined by “and” are separate entries in the source; they are usually repeats but may differ in a detail not shown here. Identical values can stand only once.
# Tests used:
# [1] = tested on: RAW 264.7 macrophages; assay: Cell viability assay (MTS); assay type: cell-based; settings: for Viability: 24 hours
# Method: CellTiter 96 AQueous one Solution Cell Proliferation Assay (MTS) (Promega, G3582) was used according to the manufacturer’s instructions to analyze cytotoxicity of SerBut and NaBut at various concentrations (0.15–12 mM) in RAW 264.7 macrophages. Viability values were normalized to untreated cells (100%) and Triton X-100–treated cells (0%). Since absorbance is directly proportional to the number of living cells in culture, values greater than 100% indicate cell growth compared with controls.
# [2] = tested on: RAW 264.7 macrophages; assay: LEGENDPlex cytokines in supernatant of LPS-stimulated RAW 264.7; assay type: cell-based; parameters: TNFa (Legendplex) / MCP-1 (Legendplex) / IL-10 (Legendplex) / IL-6 (Legendplex): unit not given here; settings: for IL-10: compared with LPS-stimulated controls
# Method: RAW 264.7 (ATCC, TIB-71) macrophages were cultured at 37°C and 5% CO2 in DMEM (Gibco) supplemented with 1 mM HEPES, 1 mM sodium pyruvate, 10% FBS, and penicillin/streptomycin. Cells were plated in round-bottom 96-well plates at 100,000 cells per well and incubated with different concentrations of either NaBut or SerBut (0.15–12 mM) for 24 hours. Cells were then rinsed with PBS and then stimulated with 200 ng/mL LPS in media for 6 hours. The cell culture supernatant was collected and analyzed by LEGENDPlex to analyze the concentrations of cytokines (BioLegend). Cell phenotype was analyzed using flow cytometry (Cytek Aurora).
# [3] = Biodistribution of free butyrate after oral gavage, ApoE–/– mice on HFD
# Method: Samples were prepared and derivatized as described previously ([28]). Stock solutions were prepared in water/acetonitrile (ACN) (1:1 v/v): 3-nitrophenylhydrazine (NPH), and 1-ethyl-3-(3-dimethylaminopropyl)carbodiimide (EDC) (in 1% pyridine). The internal standard, 4-methylvaleric acid, was added. Samples were mixed with NPH and EDC stocks at a 1:1:1 volume ratio. The mixture was heated in a heating block at 60°C for 30 minutes. Samples were filtered through 0.22 μm filters and stored at 4°C before analysis.
# An Agilent 6460 Triple Quad MS-MS was used to detect the derivatized butyrate. Both derivatized butyrate-NPH and 4-methylvaleric-NPH were detected in negative mode. Column: Thermo Fisher Scientific C18 4.6 × 50 mm, 1.8 μm particle size, at room temperature. Mobile phase A: water with 0.1% v/v formic acid. Mobile phase B: ACN with 0.1% v/v formic acid. Injection volume: 5.0 μL. Flow rate: 0.5 mL/min. Gradient of solvent: 15% mobile phase B at 0.0 minutes; 100% mobile phase B at 3.5 minutes; 100% mobile phase B at 6.0 minutes; 15% mobile phase B at 6.5 minutes. The MS conditions were optimized using pure butyrate-NPH or 4-methylvaleric-NPH at 1 mM. The fragment voltage was set to 135 V, and the collision energy was 18 V. Multiple reaction monitoring (MRM) of 222 → 137 was assigned to butyrate, and MRM of 250 → 137 was assigned to 4-methylvaleric acid as the internal standard. The ratio between MRM of butyrate and 4-methylvaleric acid was used to quantify butyrate concentration.
# Three hours after administration, mice were anesthetized under isoflurane, and blood was collected via submandibular vein into EDTA-coated tubes. The tubes were centrifuged, and plasma was collected and frozen at –80°C. […] Organs, including liver, MLNs, ILNs, spleen, lung, heart, aorta, small intestine, and large intestine were collected and then transferred to –80°C until further processing. To extract butyrate from plasma or organs, a 1:1 (v/v) ACN/water solution was used. Plasma was mixed 1:1 with the ACN/water solution and centrifuged to remove denatured proteins. Organs were weighed, transferred to Lysing Matrix D tubes (MP Biomedicals), and combined with the 1:1 v/v ACN/water solution. Samples were then lysed using a FastPrep-24 5G homogenizer (MP Biomedicals) and centrifuged. The supernatants were collected for butyrate measurement by LC-MS/MS. The final butyrate content in each organ was normalized by organ weight.
# [4] = tested on: ApoE^–/– mice on an HFD; assay: Oil Red O staining of aortic root plaque; assay type: in vivo, mouse; parameters: ORO Quantification ORO+ Heart: unit not given here; settings: for ORO Quantification ORO+ Heart: individual mice, experiments 1 and 2
# Method: For 6 weeks, mice were freely administered water, water containing 150 mM SerBut, or water containing an equimolar amount of NaBut. SerBut water was pH adjusted using 10 M NaOH to a final pH of 7.4. […] In concert, mice were fed an HFD with 42% from fat and 0.2% total cholesterol (Envigo, TD-88137) ad libitum. After 6 weeks, mice were euthanized. The lMLNs, ILNs, spleen, heart, and aorta were harvested and processed for flow cytometry analysis ([67]). The liver was harvested and part was homogenized in tissue protein extraction reagent buffer (Invitrogen, 78510) supplemented with protease inhibitor mini tablets (Thermo Fisher Scientific, PIA32955) for Western blotting and qPCR. The remaining liver was fixed with 4% paraformaldehyde and embedded in paraffin for histological analysis.
# Hearts were fixed in 4% paraformaldehyde for 24 hours and cryopreserved with sucrose (15% sucrose for 24 hours, 30% sucrose for 24 hours, 1:1 30% sucrose and OCT) before being embedded in OCT (Thermo Fisher Scientific). Frozen embedded samples were sectioned at 8 μm until all 3 leaflets were visible. Aortic root sections were brought to room temperature and rehydrated with PBS. Staining solution was freshly prepared by mixing 3:2 Oil Red O (0.5% in isopropanol, Sigma Aldrich) to water. The solution was filtered through a 0.22 μm PES syringe filter (Millipore) and pipetted onto sections. After 15 minutes in a sealed dark chamber, sections were washed 3 times with water and imaged. Images were analyzed using QuPath (v0.5.0) (https://qupath.github.io). Each leaflet was circled broadly to include the plaque and then subsequently trained on the QuPath pixel classifier using the software’s artificial neural network. Training images were then tested and validated to identify the plaques to calculate their area and exclude non-plaque structures in the image. Plaque sizes were subsequently averaged and used to determine percentage Oil Red O–positive plaque area in the leaflet.
compound,measurement,setting,value
"CCCC(=O)[O-].[Na+] [NaBut, sodium butyrate, reference compound]",cell viability,[1]; at 4 mM and above,significantly reduced cell viability
same,IL-10 (Legendplex),"[2]; 0.15 mM 24 h, then LPS 6 h",8.317 and 9.29 and 13.129 and 8.37
same,MCP-1 (Legendplex),"[2]; 0.15 mM 24 h, then LPS 6 h",1660.24 and 2264.24 and 1687.05 and 2929.5 and 2357.33 and 2465.59
same,TNFa (Legendplex),"[2]; 0.15 mM 24 h, then LPS 6 h",3467.9 and 2909.16 and 2378.78 and 3607.94 and 2472.11 and 3683.23
same,MCP-1 (Legendplex),"[2]; 0.45 mM 24 h, then LPS 6 h",2112.3 and 1670.81 and 2406.34 and 3206.1 and 2298.22 and 2148.28
same,TNFa (Legendplex),"[2]; 0.45 mM 24 h, then LPS 6 h",3244.2 and 3100.16 and 2160.11 and 2490.85 and 3404.75 and 4226.6
same,IL-6 (Legendplex),"[2]; 1.3 mM 24 h, then LPS 6 h",176.681 and 160.514 and 142.105 and 263.619 and 136.873 and 198.799
same,IL-10 (Legendplex),"[2]; 1.3 mM 24 h, then LPS 6 h",98.389 and 140.989 and 108.157 and 179.138 and 132.561 and 143.069
same,MCP-1 (Legendplex),"[2]; 1.3 mM 24 h, then LPS 6 h",906.304 and 776.372 and 770.115 and 1009 and 667.135 and 799.178
same,TNFa (Legendplex),"[2]; 1.3 mM 24 h, then LPS 6 h",1902.56 and 1870.65 and 1906.93 and 1713.88 and 1376.2 and 1809.49
same,IL-10,[2],significantly increased
same,"free butyrate, Plasma",[3]; 3 hours after single gavage of 272 mM butyrate,4.575 µM
same,ORO Quantification ORO+ Heart,[4],19.7151 and 33.3577 and 43.2157 and 32.1745 and 46.8072 and 36.2576 and 32.4176 and 40.5144 and 34.2074 and 37.9228
"CCCC(=O)OC[C@H](N)C(=O)O [SerBut, O-butyryl-L-serine]",Viability,"[1]; 0.15 mM, normalized to untreated (100%) and Triton X-100 (0%)",125.153% and 106.544% and 100.92%
same,Viability,[1]; 0.44 mM,107.157% and 122.597% and 96.9325%
same,Viability,[1]; 1.33 mM,115.337% and 91.7178% and 91.1043%
same,Viability,[1]; 4 mM,117.28% and 100.204% and 101.431%
same,Viability,[1]; 12 mM,121.575% and 99.0798% and 102.249%
same,cytotoxicity,[1]; even at 12 mM,no cytotoxicity
same,TNFa (Legendplex),"[2]; 1.3 mM 24 h, then LPS 6 h",4133.05 and 4500 and 3675.16 and 3268.68 and 3195.27 and 3191.26
same,TNFa (Legendplex),"[2]; 4 mM 24 h, then LPS 6 h",3513.15 and 3456.91 and 3852.76 and 3385.25 and 3103.2 and 3863.3
same,TNFa (Legendplex),"[2]; 12 mM 24 h, then 200 ng/mL LPS 6 h",1963.6 and 2002.31 and 2185.35 and 1388.16 and 2487.75 and 2408.88
same,"production of IL-6, MCP-1 and GM-CSF","[2]; 12 mM, as effectively as 1.3 mM NaBut",suppressed NF-κB–regulated production of proinflammatory cytokines
same,IL-10,[2],trending increase
same,"free butyrate in liver, ILNs, kidney, spleen, lung and plasma",[3]; 3 hours after gavage,significant increases
same,free butyrate in the MLNs,[3]; 3 hours after gavage,trending increases
same,free butyrate in the heart and aorta,"[3]; 3 hours after gavage, compared with both NaBut-treated and PBS-treated mice",significantly increased free butyrate
same,Oil Red O–stained plaque area in the aortic root,"[4]; 6 weeks, 150 mM in drinking water, HFD, compared with both control and NaBut-treated groups",significantly less
same,ORO Quantification ORO+ Heart,[4],21.0027 and 29.8005 and 22.5256 and 19.8678 and 31.4493 and 14.4105 and 13.3736 and 26.8175 and 18.8593 and 30.307 and 36.2089 and 15.3228 and 16.4207 and 38.8939 and 24.9469 and 30.9724 and 19.1725
